Assay results taken from BigSolDB 2.1.

Cn1c([N+](=O)[O-])cnc1N1CCN(S(C)(=O)=O)C1=O
solubility (mole fraction)
Details	293.2 K	298.2 K	303.2 K	308.2 K	313.2 K
in 1,4-butanediol	0.000939	0.00132	0.00176	0.0024	0.00315
in 1,4-dioxane	0.00814	0.0106	0.0127	0.0158	0.0189
in DMAc	0.0363	0.0481	0.0617	0.0765	0.0963
in DMF	0.0406	0.0542	0.0683	0.083	0.103
in DMSO	0.057	0.0702	0.085	0.0987	0.114
in NMP	0.0796	0.116	0.181	0.262	0.366
in ethanol	0.000378	0.00048	0.000582	0.000726	0.000851
in ethylene glycol	0.000879	0.00149	0.00228	0.00358	0.00558
in formamide	0.0476	0.0591	0.0771	0.0938	0.109
in glycerin	0.000743	0.000861	0.000984	0.00114	0.00128
in isopropanol	0.000315	0.000368	0.000447	0.000527	0.000659
in methanol	0.000481	0.000539	0.000624	0.000739	0.000871
in n-propanol	0.000356	0.000436	0.000541	0.000673	0.000832
in propylene glycol	0.00136	0.00232	0.00347	0.00538	0.00836
in water	2.86e-06	3.21e-06	3.66e-06	4.24e-06	5.06e-06

Details	solubility (mole fraction)
in PEG-200, 293.2 K	0.00829
in PEG-200, 298.2 K	0.011
in PEG-200, 303.2 K	0.0153
in PEG-200, 308.2 K	0.0205
in PEG-200, 313.2 K	0.0271
in PEG-400, 293.2 K	0.0123
in PEG-400, 298.2 K	0.0176
in PEG-400, 303.2 K	0.0247
in PEG-400, 308.2 K	0.0343
in PEG-400, 313.2 K	0.0462
in PEG-600, 293.2 K	0.015
in PEG-600, 298.2 K	0.0218
in PEG-600, 303.2 K	0.0302
in PEG-600, 308.2 K	0.0429
in PEG-600, 313.2 K	0.058
